{"source": "patent US20160151380A1", "about": "“THERAPIES FOR DISEASES CAUSED BY ARTHROPOD-BORNE PARASITES” (THE REGENTS OF THE UNIVERSITY OF CALIFORNIA, priority 2013, published 2016)", "key": {"JNK3": {"biological_target": "JNK3 (Homo sapiens, UniProt P53779)", "sequence (P53779 whole entry, species assumed)": "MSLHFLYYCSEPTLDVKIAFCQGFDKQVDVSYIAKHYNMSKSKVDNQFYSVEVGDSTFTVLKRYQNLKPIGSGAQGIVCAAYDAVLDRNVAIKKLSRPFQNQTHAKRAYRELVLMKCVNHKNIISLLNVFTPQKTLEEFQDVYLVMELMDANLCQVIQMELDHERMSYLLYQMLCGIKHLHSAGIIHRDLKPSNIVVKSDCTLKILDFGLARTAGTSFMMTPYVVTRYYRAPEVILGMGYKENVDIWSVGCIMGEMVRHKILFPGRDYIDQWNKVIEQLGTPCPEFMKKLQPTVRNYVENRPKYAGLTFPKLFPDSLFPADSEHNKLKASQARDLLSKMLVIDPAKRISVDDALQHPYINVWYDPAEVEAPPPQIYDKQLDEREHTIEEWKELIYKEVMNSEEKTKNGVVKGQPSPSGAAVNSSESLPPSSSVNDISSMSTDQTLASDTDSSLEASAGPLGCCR", "conditions": "cited from earlier work"}, "MAPK14 p38": {"biological_target": "MAPK14 p38 (Homo sapiens, UniProt Q16539)", "sequence (Q16539 whole entry)": "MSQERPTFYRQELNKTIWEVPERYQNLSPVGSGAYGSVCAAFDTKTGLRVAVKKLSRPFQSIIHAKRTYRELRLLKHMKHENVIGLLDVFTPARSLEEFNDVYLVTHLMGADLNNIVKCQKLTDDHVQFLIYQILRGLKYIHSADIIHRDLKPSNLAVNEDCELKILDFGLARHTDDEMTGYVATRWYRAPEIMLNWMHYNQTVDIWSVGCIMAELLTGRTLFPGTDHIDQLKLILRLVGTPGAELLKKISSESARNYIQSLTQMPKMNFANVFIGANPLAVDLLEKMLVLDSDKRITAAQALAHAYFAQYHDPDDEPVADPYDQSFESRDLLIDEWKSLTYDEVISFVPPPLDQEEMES", "conditions": "cited from earlier work"}, "JNK1": {"biological_target": "JNK1 (Homo sapiens, UniProt P45983)", "sequence (P45983 whole entry, species assumed)": "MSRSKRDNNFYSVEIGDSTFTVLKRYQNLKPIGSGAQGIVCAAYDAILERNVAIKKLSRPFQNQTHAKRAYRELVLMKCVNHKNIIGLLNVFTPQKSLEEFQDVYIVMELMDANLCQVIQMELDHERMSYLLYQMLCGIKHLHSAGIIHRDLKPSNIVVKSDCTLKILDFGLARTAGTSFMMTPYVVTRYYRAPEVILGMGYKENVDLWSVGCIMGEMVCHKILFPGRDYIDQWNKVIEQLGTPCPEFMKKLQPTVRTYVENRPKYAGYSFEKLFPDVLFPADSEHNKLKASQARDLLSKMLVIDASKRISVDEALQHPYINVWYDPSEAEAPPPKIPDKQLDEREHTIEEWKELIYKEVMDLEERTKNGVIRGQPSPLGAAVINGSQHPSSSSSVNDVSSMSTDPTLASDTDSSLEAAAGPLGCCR", "conditions": "cited from earlier work"}, "PKCepsilon": {"biological_target": "T1, PKCepsilon (Homo sapiens, UniProt Q02156)", "T1 sequence (Q02156 1-737)": "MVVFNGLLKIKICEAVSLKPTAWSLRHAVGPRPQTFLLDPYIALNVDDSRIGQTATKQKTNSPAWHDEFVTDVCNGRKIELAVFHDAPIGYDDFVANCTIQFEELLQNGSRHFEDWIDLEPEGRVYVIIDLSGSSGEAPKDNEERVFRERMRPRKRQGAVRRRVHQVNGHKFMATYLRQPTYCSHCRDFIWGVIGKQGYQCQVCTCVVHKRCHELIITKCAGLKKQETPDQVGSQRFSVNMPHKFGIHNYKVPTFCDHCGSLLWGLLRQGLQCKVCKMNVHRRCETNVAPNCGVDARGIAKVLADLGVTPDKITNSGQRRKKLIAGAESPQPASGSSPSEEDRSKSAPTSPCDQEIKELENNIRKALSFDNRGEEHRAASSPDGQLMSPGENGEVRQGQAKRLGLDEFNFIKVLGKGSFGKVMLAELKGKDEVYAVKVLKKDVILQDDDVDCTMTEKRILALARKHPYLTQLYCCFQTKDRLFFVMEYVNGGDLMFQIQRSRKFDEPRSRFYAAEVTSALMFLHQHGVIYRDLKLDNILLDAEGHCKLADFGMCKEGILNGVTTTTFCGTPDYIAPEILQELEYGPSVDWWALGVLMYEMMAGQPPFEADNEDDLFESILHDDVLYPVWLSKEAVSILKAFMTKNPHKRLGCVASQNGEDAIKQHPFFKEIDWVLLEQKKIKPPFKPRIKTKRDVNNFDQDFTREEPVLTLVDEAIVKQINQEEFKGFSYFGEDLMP", "conditions": "PKCepsilon; cited from earlier work"}, "Plasmodium falciparum [1]": {"system": "Plasmodium falciparum", "assay": "P. falciparum growth in vitro (flow cytometry)", "type": "cell-based", "conditions": "1 μM or 10 μM, 48 h, relative to vehicle control"}, "anti-parasite genes": {"system": "anti-parasite genes", "assay": "Midgut expression of anti-parasite/immune genes in A. stephensi (quantitative PCR)", "type": "in vivo, Anopheles stephensi", "conditions": "fed killed lysate of P. falciparum with BIRB 796; 6 h post-feeding"}, "[2]": {"system": "Anopheles stephensi p38 MAPK", "assay": "MK2 phosphorylation in LPS-stimulated ASE cells (western blot)", "type": "cell-based", "conditions": "ASE cells pre-incubated with 10 μM inhibitor, 2 h later 1 μg/ml LPS"}, "Plasmodium falciparum [3]": {"system": "Plasmodium falciparum", "assay": "P. falciparum development in A. stephensi after supplemented bloodmeal (oocysts)", "type": "in vivo", "conditions": "10 μM in bloodmeal", "method": "Midguts were dissected and oocysts were counted at 10 days following infection. Dots in FIG. 3A and FIG. 3C represent oocyst numbers in one midgut, while percentage positive midguts or percentage of midguts with at least one oocyst are represented as means in FIG. 3B and FIG. 3D. Mean oocysts per midgut (lines, numbers on graph) were analyzed by ANOVA (alpha=0.05) for overall significance and by Student-Neuman-Keuls for pairwise comparisons using Graphpad Prism version 4.0 (San Diego, Calif.). Prevalences of mosquito infection (indicated on graph) were analyzed by chi-square (alpha=0.05)."}, "A. freeborni": {"system": "A. freeborni", "assay": "Mosquito lifespan, A. freeborni", "type": "in vivo", "conditions": "1 μM or 10 μM daily in water or once weekly via bloodmeal"}, "A. stephensi": {"system": "A. stephensi", "assay": "Mosquito lifespan, A. stephensi", "type": "in vivo, Anopheles stephensi", "conditions": "1 μM or 10 μM daily in water or once weekly via bloodmeal"}}, "note": "“Also recorded” adds a separate entry of the source."}
{"smiles": "Cc1ccc(C(=O)Nc2cccc(C(F)(F)F)c2)cc1-c1ccc2nc(NCCN3CCOCC3)ncc2c1", "note": "[AMG-47a]", "values": [{"measurement": "IC50", "setting": "JNK3", "value": 145, "unit": "nM"}, {"measurement": "IC50", "setting": "MAPK14 p38", "value": 3, "unit": "nM"}]}
{"smiles": "O=C(Nc1c[nH]nc1-c1nc2cc(CN3CCOCC3)ccc2[nH]1)NC1CC1", "note": "[AT9283]", "values": [{"measurement": "IC50", "setting": "JNK1", "value": "> 100", "unit": "nM"}, {"measurement": "IC50", "setting": "JNK3", "value": "> 100", "unit": "nM"}, {"measurement": "IC50", "setting": "MAPK14 p38", "value": "> 100", "unit": "nM"}, {"measurement": "IC50", "setting": "PKCepsilon", "value": "> 100", "unit": "nM"}]}
{"smiles": "Cc1ccc(-n2nc(C(C)(C)C)cc2NC(=O)Nc2ccc(OCCN3CCOCC3)c3ccccc23)cc1", "note": "[BIRB 796, 1-[5-tert-butyl-2-(4-methylphenyl)pyrazol-3-yl]-3-[4-(2-morpholin-4-ylethoxy)naphthalen-1-yl]urea]", "values": [{"measurement": "P. falciparum growth in vitro (parasitemia)", "setting": "Plasmodium falciparum [1]", "value": "Neither inhibitor significantly altered parasite growth; also recorded: no activity"}, {"measurement": "immune gene expression levels in midgut", "setting": "anti-parasite genes", "value": "significantly different from controls"}]}
{"smiles": "COc1ccc(N(C(=O)Nc2c(C)cccc2C)c2cc(Nc3ccc(N4CCN(C)CC4)cc3)ncn2)c(OC)c1", "note": "[HG-9-91-01]", "values": [{"measurement": "IC50", "setting": "JNK3", "value": "< 800", "unit": "nM"}, {"measurement": "IC50", "setting": "MAPK14 p38", "value": "< 600", "unit": "nM"}]}
{"smiles": "O=C(O)[C@]1(Cc2cccc(Nc3nccs3)n2)CC[C@@H](Oc2cccc(Cl)c2F)CC1", "note": "[MK5108]", "values": [{"measurement": "IC50", "setting": "JNK1", "value": "> 1000", "unit": "nM"}, {"measurement": "IC50", "setting": "JNK3", "value": "> 100", "unit": "nM"}, {"measurement": "IC50", "setting": "PKCepsilon", "value": "> 1000", "unit": "nM"}]}
{"smiles": "C[S+]([O-])c1ccc(-c2nc(-c3ccc(F)cc3)c(-c3ccncc3)[nH]2)cc1", "note": "(stereo not drawn) [SB203580, 4-[4-(4-fluorophenyl)-2-(4-methylsulfinylphenyl)-1H-imidazol-5-yl]pyridine]", "values": [{"measurement": "p38 MAPK activity in the mosquito in vivo", "setting": "mosquito p38 MAPK", "value": "significantly reduced"}, {"measurement": "P. falciparum growth in vitro (parasitemia)", "setting": "Plasmodium falciparum [1]", "value": "Neither inhibitor significantly altered parasite growth; also recorded: no such effects"}, {"measurement": "p-MK2 levels", "setting": "[2]", "value": "undetectable"}, {"measurement": "infection prevalence", "setting": "Plasmodium falciparum [3]; 10 days", "value": "significantly reduced"}, {"measurement": "P. falciparum oocysts/midgut", "setting": "Plasmodium falciparum [3]; oocysts counted at 10 days", "value": "significantly reduced"}]}
{"smiles": "Oc1c2ccccc2c2c3c(cccc13)N=N2", "note": "[SP600125]", "values": [{"measurement": "impact on lifespan", "setting": "A. freeborni", "value": "no negative impact"}, {"measurement": "impact on lifespan", "setting": "A. stephensi", "value": "no negative impact"}]}
{"smiles": "CCOC(=O)Cn1nc(C(F)F)cc1C", "note": "[SureCN7018367]", "values": [{"measurement": "Kd", "setting": "JNK1", "value": "< 1250", "unit": "nM"}, {"measurement": "Kd", "setting": "JNK3", "value": "< 10", "unit": "nM"}]}
{"smiles": "CNC(=O)[C@@]1(N)C[C@H]2O[C@]1(C)n1c3ccccc3c3c4c(c5c6ccccc6n2c5c31)C(=O)NC4", "note": "[TTT-3002]", "values": [{"measurement": "IC50", "setting": "JNK1", "value": "< 40", "unit": "nM"}, {"measurement": "IC50", "setting": "JNK3", "value": "< 60", "unit": "nM"}]}
{"smiles": "C=CC(=O)Nc1cccc(Oc2nc(Nc3ccc(N4CCN(C)CC4)cc3)ncc2Cl)c1", "note": "[WZ3146]", "values": [{"measurement": "Kd", "setting": "JNK1", "value": "> 1000", "unit": "nM"}, {"measurement": "Kd", "setting": "JNK3", "value": "> 1000", "unit": "nM"}, {"measurement": "Kd", "setting": "PKCepsilon", "value": "> 1000", "unit": "nM"}]}
{"smiles": "C=CC(=O)Nc1cccc(Oc2nc(Nc3ccc(N4CCN(C)CC4)cc3OC)ncc2Cl)c1", "note": "[WZ4002]", "values": [{"measurement": "Kd", "setting": "JNK1", "value": "> 1000", "unit": "nM"}, {"measurement": "Kd", "setting": "JNK3", "value": "> 1000", "unit": "nM"}, {"measurement": "Kd", "setting": "PKCepsilon", "value": "> 1000", "unit": "nM"}]}
